The numbers were not newly measured in US6087327A (priority 1998, dated 2000), which cites them from elsewhere.

In this data set the test system is neurotransmitter release process.

Molecules are shown by their SMILES.

As to `Nc1ccncc1` [aminopyridine], the “reversal of inhibition produced by botulinum neurotoxin A” value is “more effective”.
